The values that follow come from ChEMBL document CHEMBL5634079, “Development of novel celastrol-ligustrazine hybrids as potent peroxiredoxin 1 inhibitors against lung cancer” (Eur J Med Chem, 2023).

One data set has as its target T1, Peroxiredoxin-1 (Homo sapiens, UniProt Q06830).
T1 sequence (Q06830 whole entry): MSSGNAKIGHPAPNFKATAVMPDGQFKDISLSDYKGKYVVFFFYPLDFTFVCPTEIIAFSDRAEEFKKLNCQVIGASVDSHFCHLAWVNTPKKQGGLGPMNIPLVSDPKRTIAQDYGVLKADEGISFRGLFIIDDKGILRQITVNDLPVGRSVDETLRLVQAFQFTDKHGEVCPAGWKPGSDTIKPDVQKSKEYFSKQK
In words: Inhibition of PRDX1 (unknown origin) in presence of cofactor A/cofactor B/NADPH incubated for 25 mins.

The test system of data set [1] is A549. In words: Antiproliferative activity against human A549 cells assessed as inhibition of cell growth incubated for 48 hrs by MTT assay. The format is functional, cell-based. The note with it: A549, 48 h.
The nature of data set [2]: Antiproliferative activity against human LTEP-a2 cells assessed as inhibition of cell growth incubated for 48 hrs by MTT assay. The note with it: LTEP-A2, 48 h. Type of data set: functional, cell-based.
For data set [3], the system named is NCI-H1975. Put plainly: Antiproliferative activity against human NCI-H1975 cells assessed as inhibition of cell growth incubated for 48 hrs by MTT assay. Type of data set: functional, cell-based. The note with it: NCI-H1975, 48 h.
For data set [4], the system named is MDA-MB-231. In words: Antiproliferative activity against human MDA-MB-231 cells assessed as inhibition of cell growth incubated for 48 hrs by MTT assay. Type of data set: functional, cell-based. To be noted: MDA-MB-231, 48 h.
Data set [5] relates to SK-HEP1. In words: Antiproliferative activity against human SK-HEP1 cells assessed as inhibition of cell growth incubated for 48 hrs by MTT assay. Type of data set: functional, cell-based. To be noted: SK-HEP1, 48 h.
Data set [6] in a line: Antiproliferative activity against human LTEP-a2 cells assessed as inhibition of cell growth incubated for 48 hrs in presence of ligustrazine by MTT assay. Type of data set: functional, cell-based. The note with it: LTEP-A2, 48 h.
The subject of data set [7] is NCI-H1975. In words: Antiproliferative activity against human NCI-H1975 cells assessed as inhibition of cell growth incubated for 48 hrs in presence of ligustrazine by MTT assay. The note with it: NCI-H1975, 48 h. The format is functional, cell-based.
Data set [8] relates to SK-HEP1. In words: Antiproliferative activity against human SK-HEP1 cells assessed as inhibition of cell growth incubated for 48 hrs in presence of ligustrazine by MTT assay. The note with it: SK-HEP1, 48 h. Type of data set: functional, cell-based.
Data set [9] concerns A549. In words: Inhibition of cell migration in human A549 cells assessed as reduction in wound area at 2 uM incubated for 24 hrs by inverted microscopic analysis. The format is functional. On the set-up: scale not given: the % may be the effect or the level left.
Data set [10] has as its system A549. In words: Inhibition of cell invasion in human A549 cells incubated for 12 to 48 hrs by crystal violet staining based microscopic analysis. Type of data set: functional. To be noted: dose 2-4 µM, time 12-48 hrs.
For data set [11], the system named is A549. Put plainly: Induction of apoptosis in human A549 cells assessed as viable cells at 2 uM incubated for 48 hrs by Annexin V-FITC and PI staining based flow cytometric analysis (reference value: 93.8%). The note with it: read-out: Activity. Type of data set: functional.
The subject of data set [12] is A549. Put plainly: Induction of apoptosis in human A549 cells assessed as early apoptotic cells at 2 uM incubated for 48 hrs by Annexin V-FITC and PI staining based flow cytometric analysis (reference value: 0.76%). The format is functional.
Data set [13] deals with A549. In words: Induction of apoptosis in human A549 cells assessed as late apoptotic cells at 2 uM incubated for 48 hrs by Annexin V-FITC and PI staining based flow cytometric analysis (reference value: 0.73%). Type of data set: functional.
Data set [14] relates to A549. Put plainly: Induction of apoptosis in human A549 cells assessed as necrotic cells at 2 uM incubated for 48 hrs by Annexin V-FITC and PI staining based flow cytometric analysis (reference value: 4.68%). The format is functional.
A short description of data set [15]: Antitumor activity against mouse Lewis lung carcinoma cell line implanted in C57BL/6J mouse assessed as tumor growth inhibition at 1 mg/kg, ip administered every day for 19 days. The format is functional. To be noted: 456 h, time 19 day, read-out: TGI.
Data set [16] in a line: Toxicity in C57BL/6J mouse implanted with mouse Lewis lung carcinoma cell line assessed as decrease in body weight at 0.5 to 1 mg/kg, ip administered every day for 19 days. The note with it: in vivo, 456 h, dose 0.5-1 mg/kg, time 19 day. The format is organism-based.
Data set [17] relates to A549. In words: cells. To be noted: Homo sapiens, A549, 48 h.
Description: Antiproliferative activity against human A549 cells assessed as inhibition of cell growth incubated for 48 hrs in presence of ligustrazine by MTT assay
Data set [18] relates to MDA-MB-231. In words: cells. To be noted: Homo sapiens, MDA-MB-231, 48 h.
Description: Antiproliferative activity against human MDA-MB-231 cells assessed as inhibition of cell growth incubated for 48 hrs in presence of ligustrazine by MTT assay
Data set [19] concerns A549. Put plainly: Antiproliferative activity against human A549 cells assessed as inhibition of cell growth incubated for 48 hrs in presence of celastrol by MTT assay. The format is functional, cell-based. The note with it: A549, 48 h.
A short description of data set [20]: Antiproliferative activity against human LTEP-a2 cells assessed as inhibition of cell growth incubated for 48 hrs in presence of celastrol by MTT assay. The format is functional, cell-based. To be noted: LTEP-A2, 48 h.
Data set [21] has as its system NCI-H1975. Put plainly: Antiproliferative activity against human NCI-H1975 cells assessed as inhibition of cell growth incubated for 48 hrs in presence of celastrol by MTT assay. Type of data set: functional, cell-based. The note with it: NCI-H1975, 48 h.
In data set [22] the test system is MDA-MB-231. Put plainly: Antiproliferative activity against human MDA-MB-231 cells assessed as inhibition of cell growth incubated for 48 hrs in presence of celastrol by MTT assay. The note with it: MDA-MB-231, 48 h. Type of data set: functional, cell-based.
The test system of data set [23] is SK-HEP1. In words: Antiproliferative activity against human SK-HEP1 cells assessed as inhibition of cell growth incubated for 48 hrs in presence of celastrol by MTT assay. The format is functional, cell-based. The note with it: SK-HEP1, 48 h.

As for `CCC(=O)OC1=C(C)C2=CC=C3[C@@](C)(CC[C@@]4(C)[C@@H]5C[C@](C)(C(=O)NCc6nc(C)c(C)nc6C)CC[C@]5(C)CC[C@]34C)C2=CC1=O`, the IC50 turned out to be 0.979 µM on Peroxiredoxin-1 (read-out: IC50) and 6.57 µM with A549 [1].

Consider `CC1=C(OC(=O)/C=C/c2ccccc2)C(=O)C=C2C1=CC=C1[C@@]2(C)CC[C@@]2(C)[C@@H]3C[C@](C)(C(=O)OCc4nc(C)c(C)nc4C)CC[C@]3(C)CC[C@]12C`, for which the IC50 turned out to be 0.525 µM at Peroxiredoxin-1 (read-out: IC50); 2.71 µM in the data set on A549 [1]; 3.31 µM in data set [2]; 1.49 µM in the data set with NCI-H1975 [3]; 2.13 µM in the data set on MDA-MB-231 [4]; 1.64 µM in the data set with SK-HEP1 [5].

As for `CC1=C(O)C(=O)C=C2C1=CC=C1[C@@]2(C)CC[C@@]2(C)[C@@H]3C[C@](C)(C(=O)O)CC[C@]3(C)CC[C@]12C` [CELASTROL], the IC50 with A549 [1] is 9.28 µM; in data set [2], 12 µM; in the data set on NCI-H1975 [3] it was 6.05 µM; in the data set with MDA-MB-231 [4], 4.88 µM; with SK-HEP1 [5], 10 µM; in [6] it was 9.5 µM. Further, the IC50 in the data set with NCI-H1975 [7] came to 5.61 µM; with SK-HEP1 [8] it was 9.67 µM; in the data set with A549 [17], 6.42 µM; with MDA-MB-231 [18], 4.86 µM. Also, the Activity in the data set with A549 [9] was 50%; with A549 [12], 5.21%; in the data set on A549 [13] it was 5.92%; in the data set with A549 [14] it was 3.28%; in data set [16], “Non-Toxic”. Besides, the inhibition result with A549 [10] was “Dose-Dependent Effect”. Also, the viability at 2 µM in the data set on A549 [11] was 85.6%. Besides, the inhibition in vivo at 1 mg/kg in data set [15] amounted to 71%.

For `CC(=O)OC1=C(C)C2=CC=C3[C@@](C)(CC[C@@]4(C)[C@@H]5C[C@](C)(C(=O)OCc6nc(C)c(C)nc6C)CC[C@]5(C)CC[C@]34C)C2=CC1=O`, the values for the IC50 at Peroxiredoxin-1 (read-out: IC50) and with A549 [1] were 0.481 µM and 5.27 µM, respectively.

Turning to `CC1=C(OC(=O)C2CCOCC2)C(=O)C=C2C1=CC=C1[C@@]2(C)CC[C@@]2(C)[C@@H]3C[C@](C)(C(=O)NCc4nc(C)c(C)nc4C)CC[C@]3(C)CC[C@]12C`, the IC50 at Peroxiredoxin-1 (read-out: IC50) is 1.53 µM; in the data set with A549 [1], 4.28 µM.

With `CC1=C(O)C(=O)C=C2C1=CC=C1[C@@]2(C)CC[C@@]2(C)[C@@H]3C[C@](C)(C(=O)OCc4nc(C)c(C)nc4C)CC[C@]3(C)CC[C@]12C`, the IC50 at Peroxiredoxin-1 (read-out: IC50) came out at 2.49 µM; in the data set with A549 [1] it was 2.59 µM.

With `[O-][n+]1c(CBr)c(CBr)[n+]([O-])c2ccccc21`, the IC50 on Peroxiredoxin-1 (read-out: IC50) was 14.8 µM.

As to `CCCC(=O)OC1=C(C)C2=CC=C3[C@@](C)(CC[C@@]4(C)[C@@H]5C[C@](C)(C(=O)NCc6nc(C)c(C)nc6C)CC[C@]5(C)CC[C@]34C)C2=CC1=O`, the IC50 at Peroxiredoxin-1 (read-out: IC50) came out at 0.285 µM; with A549 [1], 1.56 µM; in [2], 5.96 µM; with NCI-H1975 [3], 1.48 µM; in the data set with MDA-MB-231 [4], 3.64 µM; with SK-HEP1 [5], 2.78 µM.

With `CC1=C(O)C(=O)C=C2C1=CC=C1[C@@]2(C)CC[C@@]2(C)[C@@H]3C[C@](C)(C(=O)NCc4nc(C)c(C)nc4C)CC[C@]3(C)CC[C@]12C`, the concentration for half-maximal inhibition (IC50) at Peroxiredoxin-1 (read-out: IC50) was found to be 0.165 µM; in the data set on A549 [1], 3.39 µM.

Turning to `CC1=C(OC(=O)C2CC2)C(=O)C=C2C1=CC=C1[C@@]2(C)CC[C@@]2(C)[C@@H]3C[C@](C)(C(=O)NCc4nc(C)c(C)nc4C)CC[C@]3(C)CC[C@]12C`, the IC50 at Peroxiredoxin-1 (read-out: IC50) was found to be 0.239 µM; in the data set on A549 [1], 2.57 µM; in data set [2] it was 7.46 µM; with NCI-H1975 [3], 3.15 µM; in the data set on MDA-MB-231 [4] it was 6.06 µM; in the data set with SK-HEP1 [5], 2.72 µM.

As to `Cc1nc(C)c(C)nc1C` [LIGUSTRAZINE], the IC50 entry on Peroxiredoxin-1 is “Not Active”; in the data set with A549 [1], above 20 µM; with A549 [19], 6.42 µM; in [20], 9.5 µM; with NCI-H1975 [21], 5.61 µM; in the data set on MDA-MB-231 [22] it was 4.86 µM. The IC50 in the data set on SK-HEP1 [23] is 9.67 µM.

On to `CC(=O)OC1=C(C)C2=CC=C3[C@@](C)(CC[C@@]4(C)[C@@H]5C[C@](C)(C(=O)NCc6nc(C)c(C)nc6C)CC[C@]5(C)CC[C@]34C)C2=CC1=O`, for which the IC50 at Peroxiredoxin-1 (read-out: IC50) turned out to be 1.47 µM; in the data set on A549 [1], 6.66 µM.
